Values after ≈ are worked out from the molar mass of the structure shown.
Assays:
Salmonella typhi = assay: Antibacterial activity against Salmonella typhi MTCC 98 after 24 to 48 hrs by broth microdilution method; assay type: functional, Salmonella enterica subsp. enterica serovar Typhi; details: Salmonella enterica
Vibrio cholerae = assay: Antibacterial activity against Vibrio cholerae MTCC 3906 after 24 to 48 hrs by broth microdilution method; assay type: functional
Bacillus subtilis = assay: Antibacterial activity against Bacillus subtilis MTCC 441 after 24 to 48 hrs by broth microdilution method; assay type: functional
Streptococcus pneumoniae = assay: Antibacterial activity against Streptococcus pneumoniae MTCC 1936 after 24 to 48 hrs by broth microdilution method; assay type: functional
Escherichia coli = assay: Antibacterial activity against Escherichia coli MTCC 443 after 24 to 48 hrs by broth microdilution method; assay type: functional
[1] = system: Schizosaccharomyces pombe; assay: Cytotoxicity against Schizosaccharomyces pombe at 2.5 to 12.5 ug/ml after 17 hrs by trypan blue exclusion method; assay type: organism-based; details: in vivo
Aspergillus fumigatus = assay: Antifungal activity against Aspergillus fumigatus MTCC 3008 after 24 to 48 hrs by broth microdilution method; assay type: functional
Plasmodium falciparum = assay: Antimalarial activity against Plasmodium falciparum after 48 hrs; assay type: functional, organism-based
Clostridium tetani = assay: Antibacterial activity against Clostridium tetani MTCC 449 after 24 to 48 hrs by broth microdilution method; assay type: functional
Candida albicans = assay: Antifungal activity against Candida albicans MTCC 227 after 24 to 48 hrs by broth microdilution method; assay type: functional
[2] = system: Mycobacterium tuberculosis; assay: Antituberculosis activity against Mycobacterium tuberculosis H37Rv at 250 ug/ml incubated for 24 hrs measured after 2 to 4 weeks by Lowensteine-Jensen method; assay type: functional
[3] = system: Mycobacterium tuberculosis; assay: Antituberculosis activity against Mycobacterium tuberculosis H37Rv after 2 to 4 weeks by Lowensteine-Jensen method; assay type: functional

Row | Compound | MIC (Salmonella typhi) | MIC (Vibrio cholerae) | MIC (Bacillus subtilis) | MIC (Streptococcus pneumoniae) | MIC (Escherichia coli) | Activity [1] | MIC (Aspergillus fumigatus) | IC50 (Plasmodium falciparum) | MIC (Clostridium tetani) | MIC (Candida albicans) | inhibition at 250 µg/mL [2] | MIC [3]
1 | O=C(O)c1cn(C2CC2)c2cc(N3CCNCC3)c(F)cc2c1=O [CIPROFLOXACIN] | 75 µM (≈ 24.9 µg/mL) | 75 µM (≈ 24.9 µg/mL) | 150 µM (≈ 49.7 µg/mL) | 150 µM (≈ 49.7 µg/mL) | 75 µM (≈ 24.9 µg/mL) |  |  |  |  |  |  | 
2 | COc1ccc(C2=NN(c3ccc(F)cc3)C(c3cc4ccccc4nc3N3CCOCC3)C2)cc1 (stereo not drawn) | 207 µM (≈ 99.9 µg/mL) | 518 µM (≈ 250 µg/mL) | 518 µM (≈ 250 µg/mL) | 259 µM (≈ 125 µg/mL) | 414 µM (≈ 200 µg/mL) | Non-toxic | 207 µM (≈ 99.9 µg/mL) | 51 nM | 1040 µM (≈ 500 µg/mL) | 518 µM (≈ 250 µg/mL) | 33% | 
3 | NC(=S)N1N=C(c2ccc(F)cc2)CC1c1cc2ccccc2nc1N1CCOCC1 (stereo not drawn) | 143 µM (≈ 62.3 µg/mL) | 574 µM (≈ 250 µg/mL) | 1150 µM (≈ 500 µg/mL) | 229 µM (≈ 99.7 µg/mL) | 574 µM (≈ 250 µg/mL) |  | 1150 µM (≈ 500 µg/mL) | 1840 nM | 1150 µM (≈ 500 µg/mL) | 229 µM (≈ 99.7 µg/mL) | 54% | 
4 | C=C[C@H]1CN2CC[C@H]1C[C@H]2[C@H](O)c1ccnc2ccc(OC)cc12 [QUININE] |  |  |  |  |  |  |  | 826 nM |  |  |  | 
5 | CC(=O)N1N=C(c2ccc(F)cc2)CC1c1cc2ccccc2nc1N1CCOCC1 (stereo not drawn) | 238 µM (≈ 99.6 µg/mL) | 597 µM (≈ 250 µg/mL) | 597 µM (≈ 250 µg/mL) | 238 µM (≈ 99.6 µg/mL) | 597 µM (≈ 250 µg/mL) |  | 1190 µM (≈ 500 µg/mL) | 1670 nM | 238 µM (≈ 99.6 µg/mL) | 597 µM (≈ 250 µg/mL) | 32% | 
6 | COc1ccc(C2=NN(C(N)=S)C(c3cc4ccccc4nc3N3CCOCC3)C2)cc1 (stereo not drawn) | 223 µM (≈ 99.8 µg/mL) | 558 µM (≈ 250 µg/mL) | 446 µM (≈ 200 µg/mL) | 223 µM (≈ 99.8 µg/mL) | 558 µM (≈ 250 µg/mL) |  | 223 µM (≈ 99.8 µg/mL) | 3240 nM | 446 µM (≈ 200 µg/mL) | 1120 µM (≈ 500 µg/mL) | 63% | 
7 | O=CN1N=C(c2ccc(Cl)cc2)CC1c1cc2ccccc2nc1N1CCOCC1 (stereo not drawn) | 1190 µM (≈ 500 µg/mL) | 237 µM (≈ 99.8 µg/mL) | 1190 µM (≈ 500 µg/mL) | 148 µM (≈ 62.3 µg/mL) | 237 µM (≈ 99.8 µg/mL) | Toxic | > 2380 µM | 28 nM | 475 µM (≈ 200 µg/mL) | 2380 µM (≈ 1000 µg/mL) | 94% | 59 µM (≈ 24.8 µg/mL)
8 | O=CN1N=C(c2ccc(Br)cc2)CC1c1cc2ccccc2nc1N1CCOCC1 (stereo not drawn) | 134 µM (≈ 62.4 µg/mL) | 214 µM (≈ 99.6 µg/mL) | 214 µM (≈ 99.6 µg/mL) | 537 µM (≈ 250 µg/mL) | 214 µM (≈ 99.6 µg/mL) | Non-toxic | 1070 µM (≈ 500 µg/mL) | 40 nM | 429 µM (≈ 200 µg/mL) | 537 µM (≈ 250 µg/mL) | 32% | 
9 | NYSTATIN |  |  |  |  |  |  | 107 µM |  |  | 107 µM |  | 
10 | NC(=S)N1N=C(c2ccc(Cl)cc2)CC1c1cc2ccccc2nc1N1CCOCC1 (stereo not drawn) | 553 µM (≈ 250 µg/mL) | 221 µM (≈ 99.9 µg/mL) | 221 µM (≈ 99.9 µg/mL) | 553 µM (≈ 250 µg/mL) | 442 µM (≈ 200 µg/mL) |  | 221 µM (≈ 99.9 µg/mL) | 4650 nM | 221 µM (≈ 99.9 µg/mL) | 2210 µM (≈ 1000 µg/mL) | 45% | 
11 | CO[C@H]1/C=C/O[C@@]2(C)Oc3c(C)c(O)c4c(O)c(c(/C=N/N5CCN(C)CC5)c(O)c4c3C2=O)NC(=O)/C(C)=C\C=C\[C@H](C)[C@H](O)[C@@H](C)[C@@H](O)[C@@H](C)[C@H](OC(C)=O)[C@@H]1C [RIFAMPIN] |  |  |  |  |  |  |  |  |  |  | 98% | 48 µM (≈ 39.5 µg/mL)
12 | O=CN1N=C(c2ccc(F)cc2)CC1c1cc2ccccc2nc1N1CCOCC1 (stereo not drawn) | 1240 µM (≈ 500 µg/mL) | 618 µM (≈ 250 µg/mL) | 154 µM (≈ 62.3 µg/mL) | 247 µM (≈ 99.9 µg/mL) | 494 µM (≈ 200 µg/mL) |  | > 2470 µM | 1040 nM | 1240 µM (≈ 500 µg/mL) | 2470 µM (≈ 1000 µg/mL) | 93% | 247 µM (≈ 99.9 µg/mL)
13 | COc1ccc(C2=NN(C(C)=O)C(c3cc4ccccc4nc3N3CCOCC3)C2)cc1 (stereo not drawn) | 1160 µM (≈ 500 µg/mL) | 1160 µM (≈ 500 µg/mL) | 232 µM (≈ 99.9 µg/mL) | 145 µM (≈ 62.4 µg/mL) | 232 µM (≈ 99.9 µg/mL) | Toxic | 1160 µM (≈ 500 µg/mL) | 34 nM | 1160 µM (≈ 500 µg/mL) | 2320 µM (≈ 1000 µg/mL) | 45% | 
14 | Fc1ccc(N2N=C(c3ccc(Cl)cc3)CC2c2cc3ccccc3nc2N2CCOCC2)cc1 (stereo not drawn) | 410 µM (≈ 200 µg/mL) | 513 µM (≈ 250 µg/mL) | 410 µM (≈ 200 µg/mL) | 1030 µM (≈ 500 µg/mL) | 205 µM (≈ 99.8 µg/mL) |  | 205 µM (≈ 99.8 µg/mL) | 1790 nM | 1030 µM (≈ 500 µg/mL) | 2050 µM (≈ 1000 µg/mL) | 24% | 
15 | COC1=CC(=O)C[C@@H](C)[C@]12Oc1c(Cl)c(OC)cc(OC)c1C2=O [GRISEOFULVIN] |  |  |  |  |  |  | 283 µM (≈ 99.8 µg/mL) |  |  | 1150 µM (≈ 405 µg/mL) |  | 
16 | CC(=O)N1N=C(c2ccc(Br)cc2)CC1c1cc2ccccc2nc1N1CCOCC1 (stereo not drawn) | 1040 µM (≈ 500 µg/mL) | 1040 µM (≈ 500 µg/mL) | 1040 µM (≈ 500 µg/mL) | 417 µM (≈ 200 µg/mL) | 521 µM (≈ 250 µg/mL) | Toxic | 208 µM (≈ 99.7 µg/mL) | 18 nM | 208 µM (≈ 99.7 µg/mL) | 2090 µM (≈ 1000 µg/mL) | 29% | 
17 | CCn1cc(C(=O)O)c(=O)c2cc(F)c(N3CCNCC3)cc21 [NORFLOXACIN] | 31 µM (≈ 9.9 µg/mL) | 31 µM (≈ 9.9 µg/mL) | 310 µM (≈ 99 µg/mL) | 31 µM (≈ 9.9 µg/mL) | 31 µM (≈ 9.9 µg/mL) |  |  |  | 313 µM (≈ 100 µg/mL) |  |  | 
18 | CC(=O)N1N=C(c2ccc(Cl)cc2)CC1c1cc2ccccc2nc1N1CCOCC1 (stereo not drawn) | 574 µM (≈ 250 µg/mL) | 229 µM (≈ 99.6 µg/mL) | 229 µM (≈ 99.6 µg/mL) | 1150 µM (≈ 500 µg/mL) | 229 µM (≈ 99.6 µg/mL) |  | 1150 µM (≈ 500 µg/mL) | 2870 nM | 149 µM (≈ 64.8 µg/mL) | 1150 µM (≈ 500 µg/mL) | 96% | 143 µM (≈ 62.2 µg/mL)
19 | CC1(C)S[C@@H]2[C@H](NC(=O)[C@H](N)c3ccccc3)C(=O)N2[C@H]1C(=O)O [AMPICILLIN] | 286 µM (≈ 99.9 µg/mL) | 286 µM (≈ 99.9 µg/mL) | 715 µM (≈ 250 µg/mL) | 286 µM (≈ 99.9 µg/mL) | 286 µM (≈ 99.9 µg/mL) |  |  |  | 715 µM (≈ 250 µg/mL) |  |  | 
20 | O=C(N[C@H](CO)[C@H](O)c1ccc([N+](=O)[O-])cc1)C(Cl)Cl [CHLORAMPHENICOL] | 154 µM (≈ 49.8 µg/mL) | 154 µM (≈ 49.8 µg/mL) | 154 µM (≈ 49.8 µg/mL) | 154 µM (≈ 49.8 µg/mL) | 154 µM (≈ 49.8 µg/mL) |  |  |  | 154 µM (≈ 49.8 µg/mL) |  |  | 
21 | Fc1ccc(C2=NN(c3ccc(F)cc3)C(c3cc4ccccc4nc3N3CCOCC3)C2)cc1 (stereo not drawn) | 212 µM (≈ 99.8 µg/mL) | 132 µM (≈ 62.1 µg/mL) | 212 µM (≈ 99.8 µg/mL) | 265 µM (≈ 125 µg/mL) | 265 µM (≈ 125 µg/mL) |  | 2120 µM (≈ 1000 µg/mL) | 3420 nM | 132 µM (≈ 62.1 µg/mL) | 212 µM (≈ 99.8 µg/mL) | 48% | 
22 | NC(=S)N1N=C(c2ccc(Br)cc2)CC1c1cc2ccccc2nc1N1CCOCC1 (stereo not drawn) | 402 µM (≈ 200 µg/mL) | 201 µM (≈ 99.8 µg/mL) | 402 µM (≈ 200 µg/mL) | 402 µM (≈ 200 µg/mL) | 201 µM (≈ 99.8 µg/mL) | Non-toxic | 1010 µM (≈ 500 µg/mL) | 44 nM | 201 µM (≈ 99.8 µg/mL) | > 2010 µM | 90% | 201 µM (≈ 99.8 µg/mL)
23 | COc1ccc(C2=NN(C=O)C(c3cc4ccccc4nc3N3CCOCC3)C2)cc1 (stereo not drawn) | 240 µM (≈ 100 µg/mL) | 480 µM (≈ 200 µg/mL) | 600 µM (≈ 250 µg/mL) | 240 µM (≈ 100 µg/mL) | 480 µM (≈ 200 µg/mL) |  | 2400 µM (≈ 1000 µg/mL) | 1870 nM | 1200 µM (≈ 500 µg/mL) | 1200 µM (≈ 500 µg/mL) | 36% | 
24 | NNC(=O)c1ccncc1 [ISONIAZID] |  |  |  |  |  |  |  |  |  |  |  | 1 µM (≈ 0.137 µg/mL)
25 | Fc1ccc(N2N=C(c3ccc(Br)cc3)CC2c2cc3ccccc3nc2N2CCOCC2)cc1 (stereo not drawn) | 376 µM (≈ 200 µg/mL) | 470 µM (≈ 250 µg/mL) | 940 µM (≈ 500 µg/mL) | 188 µM (≈ 99.9 µg/mL) | 117 µM (≈ 62.2 µg/mL) | Non-toxic | 940 µM (≈ 500 µg/mL) | 15 nM | 188 µM (≈ 99.9 µg/mL) | 470 µM (≈ 250 µg/mL) | 95% | 47 µM (≈ 25 µg/mL)
